Measurements: US9937183B2, “Antimicrobial compounds and methods of making and using the same” (priority 2013, dated 2018)
In brackets after ≈: the same amount, converted by molar mass. Read-outs that look alike come from different tables or passages of the source.

Assays:
Format in all cases: cell-based
E. coli MG1655 parent = experiment: MIC, microtiter-based liquid assay (CLSI); settings: Escherichia coli
A. baumannii 1705943 = experiment: MIC, microtiter-based liquid assay (CLSI); settings: Acinetobacter baumannii
P. aeruginosa 1705904 = experiment: MIC, microtiter-based liquid assay (CLSI); settings: Pseudomonas aeruginosa, MDR strain
B. pseudomallei = experiment: microbe, parasite or virus in culture; settings: Burkholderia pseudomallei; for MIC50: read-out: B. pseudomallei MIC50; for MIC90: read-out: B. pseudomallei MIC90; for MIC: read-out: B. pseudomallei MIC Range
K. pneumoniae 1705966 = experiment: MIC, microtiter-based liquid assay (CLSI); settings: Klebsiella pneumoniae
B. anthracis = experiment: microbe, parasite or virus in culture; settings: Bacillus anthracis; for MIC50: read-out: B. anthracis MIC50; for MIC90: read-out: B. anthracis MIC90; for MIC: read-out: B. anthracis MIC Range
P. aeruginosa ATCC27853 = experiment: MIC, microtiter-based liquid assay (CLSI); settings: Pseudomonas aeruginosa
F. tularensis = experiment: microbe, parasite or virus in culture; settings: Francisella tularensis; for MIC50: read-out: F. tularensis MIC50; for MIC90: read-out: F. tularensis MIC90; for MIC: read-out: F. tularensis MIC Range
E. coli ATCC25922 = experiment: MIC, microtiter-based liquid assay (CLSI); settings: Escherichia coli
B. mallei = experiment: microbe, parasite or virus in culture; settings: Burkholderia mallei; for MIC50: read-out: B. mallei MIC50; for MIC90: read-out: B. mallei MIC90; for MIC: read-out: B. mallei MIC Range
[1] = tested on: E. faecium A6349 VanA + LNZ-R; experiment: MIC, microtiter-based liquid assay (CLSI); settings: Enterococcus faecium
[2] = tested on: S. pneumoniae 02J1175 Mef(A); experiment: MIC, microtiter-based liquid assay (CLSI); settings: Streptococcus pneumoniae
E. coli 1705878 = experiment: MIC, microtiter-based liquid assay (CLSI); settings: Escherichia coli, MDR strain
S. aureus 11540 MRSA = experiment: MIC, microtiter-based liquid assay (CLSI); settings: Staphylococcus aureus
E. coli CAG12184 TolC = experiment: MIC, microtiter-based liquid assay (CLSI); settings: Escherichia coli, CAG12184TOLC
P. aeruginosa 1705886 = experiment: MIC, microtiter-based liquid assay (CLSI); settings: Pseudomonas aeruginosa
K. pneumoniae 1705949 = experiment: MIC, microtiter-based liquid assay (CLSI); settings: Klebsiella pneumoniae, MDR strain
A. baumannii 1705936 = experiment: MIC, microtiter-based liquid assay (CLSI); settings: Acinetobacter baumannii, MDR strain
Y. pestis = experiment: microbe, parasite or virus in culture; settings: Yersinia pestis; for MIC50: read-out: Y. pestis MIC50; for MIC90: read-out: Y. pestis MIC90; for MIC: read-out: Y. pestis MIC Range
[3] = ATCC25922, read-out: MIC E. coli ATCC25922 + 50% HS
[4] = ATCC25922, read-out: MIC E. coli ATCC25922

## C[C@H](N)CCCc1cc(OC(F)(F)F)c(F)c(-c2cc3cn(-c4ccc([C@H](C)NCCCNC(=N)N)cc4)c(=O)nc3[nH]2)c1 [Compound 3]
E. coli MG1655 parent
  MIC: 0.5 µg/mL (≈ 0.811 µM)
A. baumannii 1705943
  MIC: 0.25 µg/mL (≈ 0.405 µM)
P. aeruginosa 1705904
  MIC: 8 µg/mL (≈ 13 µM)
B. pseudomallei
  MIC50: 2 µg/mL (≈ 3.24 µM)
  MIC90: 4 µg/mL (≈ 6.49 µM)
  MIC: 0.5 to 8 µg/mL (≈ 0.811 to 13 µM)
K. pneumoniae 1705966
  MIC: 0.25 µg/mL (≈ 0.405 µM)
B. anthracis
  MIC50: 0.25 µg/mL (≈ 0.405 µM)
  MIC90: 0.25 µg/mL (≈ 0.405 µM)
  MIC: 0.03 to 2 µg/mL (≈ 0.0486 to 3.24 µM)
P. aeruginosa ATCC27853
  MIC: 8 µg/mL (≈ 13 µM)
F. tularensis
  MIC50: ≤ 0.03 µg/mL
  MIC90: 0.12 µg/mL (≈ 0.195 µM)
  MIC: 0.03 to 1 µg/mL (≈ 0.0486 to 1.62 µM)
E. coli ATCC25922; [3]
  MIC: 0.5 µg/mL
E. coli ATCC25922; [4]
  MIC: 0.25 µg/mL (≈ 0.405 µM)
B. mallei
  MIC50: 0.06 µg/mL (≈ 0.0973 µM)
  MIC90: 0.12 µg/mL (≈ 0.195 µM)
  MIC: 0.03 to 0.5 µg/mL (≈ 0.0486 to 0.811 µM)
[1]
  MIC: 2 µg/mL
[2]
  MIC: 0.25 µg/mL (≈ 0.405 µM)
E. coli 1705878
  MIC: 0.5 µg/mL (≈ 0.811 µM)
S. aureus 11540 MRSA
  MIC: 0.25 µg/mL (≈ 0.405 µM)
E. coli CAG12184 TolC
  MIC: 0.25 µg/mL (≈ 0.405 µM)
P. aeruginosa 1705886
  MIC: 4 µg/mL (≈ 6.49 µM)
K. pneumoniae 1705949
  MIC: 1 µg/mL (≈ 1.62 µM)
A. baumannii 1705936
  MIC: 2 µg/mL (≈ 3.24 µM)
Y. pestis
  MIC50: 0.25 µg/mL (≈ 0.405 µM)
  MIC90: 0.5 µg/mL (≈ 0.811 µM)
  MIC: 0.03 to 1 µg/mL (≈ 0.0486 to 1.62 µM)

## C[C@H](NCCCNC(=N)N)c1ccc(-n2cc3cc(-c4cc(CCC5(CN)CC5)cc(Cl)c4F)[nH]c3nc2=O)cc1 [Compound 4]
E. coli MG1655 parent
  MIC: 0.25 µg/mL (≈ 0.432 µM)
A. baumannii 1705943
  MIC: 0.25 µg/mL (≈ 0.432 µM)
P. aeruginosa 1705904
  MIC: 4 µg/mL (≈ 6.91 µM)
B. pseudomallei
  MIC50: 2 µg/mL (≈ 3.45 µM)
  MIC90: 4 µg/mL (≈ 6.91 µM)
  MIC: 0.5 to 8 µg/mL (≈ 0.863 to 13.8 µM)
K. pneumoniae 1705966
  MIC: 0.25 µg/mL (≈ 0.432 µM)
B. anthracis
  MIC50: 0.5 µg/mL (≈ 0.863 µM)
  MIC90: 0.5 µg/mL (≈ 0.863 µM)
  MIC: 0.06 to 4 µg/mL (≈ 0.104 to 6.91 µM)
P. aeruginosa ATCC27853
  MIC: 4 µg/mL (≈ 6.91 µM)
F. tularensis
  MIC50: ≤ 0.03 µg/mL
  MIC90: ≤ 0.03 µg/mL
  MIC: 0.03 to 1 µg/mL (≈ 0.0518 to 1.73 µM)
E. coli ATCC25922; [3]
  MIC: 0.5 µg/mL
E. coli ATCC25922; [4]
  MIC: 0.125 µg/mL (≈ 0.216 µM)
B. mallei
  MIC50: ≤ 0.03 µg/mL
  MIC90: 0.12 µg/mL (≈ 0.207 µM)
  MIC: 0.03 to 0.5 µg/mL (≈ 0.0518 to 0.863 µM)
[1]
  MIC: 4 µg/mL
[2]
  MIC: 0.5 µg/mL (≈ 0.863 µM)
E. coli 1705878
  MIC: 0.5 µg/mL (≈ 0.863 µM)
S. aureus 11540 MRSA
  MIC: 0.25 µg/mL (≈ 0.432 µM)
E. coli CAG12184 TolC
  MIC: 0.25 µg/mL (≈ 0.432 µM)
P. aeruginosa 1705886
  MIC: 2 µg/mL (≈ 3.45 µM)
K. pneumoniae 1705949
  MIC: 1 µg/mL (≈ 1.73 µM)
A. baumannii 1705936
  MIC: 4 µg/mL (≈ 6.91 µM)
Y. pestis
  MIC50: 0.25 µg/mL (≈ 0.432 µM)
  MIC90: 0.25 µg/mL (≈ 0.432 µM)
  MIC: 0.03 to 0.5 µg/mL (≈ 0.0518 to 0.863 µM)

## C[C@H](NCCCNC(=N)N)c1ccc(-n2cc3cc(-c4cc(CCC[C@@H](N)CO)cc(Cl)c4F)[nH]c3nc2=O)cc1 [Compound 5]
E. coli MG1655 parent
  MIC: 0.5 µg/mL (≈ 0.857 µM)
A. baumannii 1705943
  MIC: 0.25 µg/mL (≈ 0.429 µM)
P. aeruginosa 1705904
  MIC: 8 µg/mL (≈ 13.7 µM)
B. pseudomallei
  MIC50: 16 µg/mL (≈ 27.4 µM)
  MIC90: 16 µg/mL (≈ 27.4 µM)
K. pneumoniae 1705966
  MIC: 0.125 µg/mL (≈ 0.214 µM)
B. anthracis
  MIC50: 0.12 µg/mL (≈ 0.206 µM)
  MIC90: 0.12 µg/mL (≈ 0.206 µM)
  MIC: 0.03 to 2 µg/mL (≈ 0.0514 to 3.43 µM)
P. aeruginosa ATCC27853
  MIC: 4 µg/mL (≈ 6.86 µM)
F. tularensis
  MIC50: ≤ 0.03 µg/mL
  MIC90: ≤ 0.03 µg/mL
  MIC: 0.03 to 0.25 µg/mL (≈ 0.0514 to 0.429 µM)
E. coli ATCC25922; [3]
  MIC: 0.25 µg/mL
E. coli ATCC25922; [4]
  MIC: 0.125 µg/mL (≈ 0.214 µM)
B. mallei
  MIC50: 0.06 µg/mL (≈ 0.103 µM)
  MIC90: 0.25 µg/mL (≈ 0.429 µM)
  MIC: 0.03 to 0.5 µg/mL (≈ 0.0514 to 0.857 µM)
[1]
  MIC: 1 µg/mL
[2]
  MIC: 0.125 µg/mL (≈ 0.214 µM)
E. coli 1705878
  MIC: 2 µg/mL (≈ 3.43 µM)
S. aureus 11540 MRSA
  MIC: 0.125 µg/mL (≈ 0.214 µM)
E. coli CAG12184 TolC
  MIC: 0.06 µg/mL (≈ 0.103 µM)
P. aeruginosa 1705886
  MIC: 4 µg/mL (≈ 6.86 µM)
K. pneumoniae 1705949
  MIC: 0.5 µg/mL (≈ 0.857 µM)
A. baumannii 1705936
  MIC: 2 µg/mL (≈ 3.43 µM)
Y. pestis
  MIC50: 0.25 µg/mL (≈ 0.429 µM)
  MIC90: 0.5 µg/mL (≈ 0.857 µM)
  MIC: 0.03 to 2 µg/mL (≈ 0.0514 to 3.43 µM)
